In publication PMC5069460, “A novel gene cluster allows preferential utilization of fucosylated milk oligosaccharides in Bifidobacterium longum subsp. longum SC596” (Scientific Reports, 2016):

target: T1, BLNG_00160 (SBP of LNB/GNB cluster) (Bifidobacterium longum, UniProt Q8G3W5); test: glycan array (CFG Mammalian Glycan Array v5.[…]), anti-GST Alexa […]; type: binding; settings: glycan immobilised via spacer; protein 200 ug/ml; pH 7.4, 150 mM NaCl, 2 mM CaCl2, 2 mM MgCl2
T1 construct: gene BL1638; tag kept for detection
T1 sequence (Q8G3W5 24-438): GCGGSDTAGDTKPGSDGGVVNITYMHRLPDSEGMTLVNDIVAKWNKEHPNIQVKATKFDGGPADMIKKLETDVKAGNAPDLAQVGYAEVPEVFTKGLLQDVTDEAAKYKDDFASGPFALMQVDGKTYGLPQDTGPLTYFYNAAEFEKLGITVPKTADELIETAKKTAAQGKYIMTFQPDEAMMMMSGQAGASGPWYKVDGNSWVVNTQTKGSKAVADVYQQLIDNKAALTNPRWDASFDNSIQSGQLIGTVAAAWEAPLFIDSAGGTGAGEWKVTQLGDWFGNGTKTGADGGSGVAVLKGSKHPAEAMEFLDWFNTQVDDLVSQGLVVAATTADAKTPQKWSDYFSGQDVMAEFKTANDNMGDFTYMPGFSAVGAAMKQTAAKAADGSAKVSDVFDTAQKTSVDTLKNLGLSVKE

First: CC(=O)N[C@H]1[C@H](OCCCN)O[C@H](COS(=O)(=O)O)[C@@H](O)[C@@H]1O[C@@H]1O[C@H](CO)[C@H](O)[C@H](O)[C@H]1O [Galβ1-3(6S)GlcNAcβ-Sp8]
Second: CC(=O)N[C@H]1[C@H](O[C@@H]2[C@H](O)[C@@H](O)[C@H](O[C@H]3[C@H](O)[C@@H](O)[C@H](OCCCN)O[C@@H]3CO)O[C@@H]2CO)O[C@H](CO)[C@H](O)[C@@H]1O[C@@H]1O[C@H](CO)[C@H](O)[C@H](O)[C@H]1O [Galβ1-3GalNAcβ1-4Galβ1-4Glcβ-Sp8]
The “Average RFU^b” value of the first is lower: 2646 RFU for the first, 3430 RFU for the second.

Going from `CC(=O)N[C@H]1[C@H](OCCCN)O[C@H](CO)[C@@H](O[C@@H]2O[C@H](CO)[C@H](O)[C@H](O[C@@H]3O[C@H](CO)[C@H](O)[C@H](O)[C@H]3O)[C@H]2O)[C@@H]1O` [Galβ1-3Galβ1-4GlcNAcβ-Sp8] to Galβ1-3GalNAcβ1-3Gal-Sp21, the “Average RFU^b” value falls from 4654 RFU to 2528 RFU.

First: Galβ1-3GlcNAcβ1-3Galβ1-4Glcβ-Sp10
Second: CC(=O)N[C@H]1[C@H](OCCN)O[C@H](CO)[C@@H](O[C@@H]2O[C@H](CO)[C@H](O)[C@H](O[C@@H]3O[C@H](CO)[C@@H](O)[C@H](O[C@@H]4O[C@H](CO)[C@H](O)[C@H](O)[C@H]4O)[C@H]3NC(C)=O)[C@H]2O)[C@@H]1O [Galβ1-3GlcNAcβ1-3Galβ1-4GlcNAcβ-Sp0]
The “Average RFU^b” value of the first is lower: 1784 RFU for the first, 2029 RFU for the second.

In the case of `CC(=O)N[C@H]1[C@H](OCCN)O[C@H](CO)[C@@H](O)[C@@H]1O[C@@H]1O[C@H](CO)[C@H](O)[C@H](O)[C@H]1O` [Galβ1-3GlcNAcβ-Sp0], the “Average RFU^b” value is reported as 969 RFU.

target: T2, BLNG_01257 (SBP of FHMO cluster) (Bifidobacterium longum, UniProt A0A0M3T5K2); test: as above; type: binding; settings: glycan immobilised via spacer; protein 200 ug/ml; pH 7.4, 150 mM NaCl, 2 mM CaCl2, 2 mM MgCl2
T2 construct: tag kept for detection; homolog of Blon_0343 and Blon_2202
T2 sequence (A0A0M3T5K2 23-460 limits assumed): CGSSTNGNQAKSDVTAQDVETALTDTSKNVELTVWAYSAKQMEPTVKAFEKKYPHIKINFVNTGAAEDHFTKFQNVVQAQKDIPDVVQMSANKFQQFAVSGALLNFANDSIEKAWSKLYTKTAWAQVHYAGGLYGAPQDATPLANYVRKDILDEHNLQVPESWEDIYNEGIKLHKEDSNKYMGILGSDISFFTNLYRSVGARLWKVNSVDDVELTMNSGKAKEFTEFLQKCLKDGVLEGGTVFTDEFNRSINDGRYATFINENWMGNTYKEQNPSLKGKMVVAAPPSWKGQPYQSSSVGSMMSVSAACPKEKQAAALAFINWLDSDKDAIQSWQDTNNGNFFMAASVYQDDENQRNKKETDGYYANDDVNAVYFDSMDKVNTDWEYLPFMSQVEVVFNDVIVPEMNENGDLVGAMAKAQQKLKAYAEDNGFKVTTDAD

Going from Fuca1-2Galβ1-4Glcβ-Sp0 to `C[C@@H]1O[C@@H](O[C@H]2C(O)O[C@H](CO)[C@H](O)[C@@H]2O)[C@@H](O)[C@H](O)[C@@H]1O` (stereo partly shown) [Fuca1-2Galβ-Sp8], the “Average RFU^b” value rises from 360 RFU to 2161 RFU.

target: T3, BLNG_00936 (SBP) (Bifidobacterium longum, UniProt Q8G848); test: as above; type: binding; settings: glycan immobilised via spacer; protein 200 ug/ml; pH 7.4, 150 mM NaCl, 2 mM CaCl2, 2 mM MgCl2
T3 construct: gene fruE; tag kept for detection
T3 sequence (Q8G848 23-327 limits assumed): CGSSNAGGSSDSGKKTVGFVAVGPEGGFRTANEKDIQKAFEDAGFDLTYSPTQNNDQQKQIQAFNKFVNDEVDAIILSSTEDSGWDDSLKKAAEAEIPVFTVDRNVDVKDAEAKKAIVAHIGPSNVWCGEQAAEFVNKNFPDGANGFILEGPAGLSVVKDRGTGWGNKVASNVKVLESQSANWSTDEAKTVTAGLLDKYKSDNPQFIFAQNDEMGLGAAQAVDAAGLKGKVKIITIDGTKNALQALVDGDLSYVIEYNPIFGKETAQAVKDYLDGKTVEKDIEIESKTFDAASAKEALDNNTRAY

For `CC(=O)N[C@H]1[C@H](OCCCN)O[C@H](CO)[C@@H](O[C@@H]2O[C@H](CO)[C@H](O)[C@H](O[C@@H]3O[C@H](CO)[C@H](O)[C@H](O)[C@H]3O)[C@H]2O)[C@@H]1O` [Galβ1-3Galβ1-4GlcNAcβ-Sp8], the “Average RFU^b” value was 126 RFU.
